The subject of the assay is Serex 51A93. The assay is described as follows: ELISA plate inhibition studies of Serex 51A93 by calibrators (Osteomark BCE, Metra free pyridinoline). It is filed as binding. On the procedure: The immunoreactivities of 51A93 and 1H11 with the calibrators and ELISA plates in the Osteomark kit and Pyrilinks Metra kit were compared. Two studies were carried out using ELISA plate assays.
In the first study, BCE calibrators from the Osteomark Kit and free pyridinoline (Pyd) from Metra were tested at different concentrations to see if either of them inhibits 51A93. Abbreviations are BCE, bone collagen equivalents; %Bo, percent bound at 0 concentration of analyte (as analyte in sample binds to antibody, the percent Bo decreases).

For the molecule `N[C@@H](CC[C@@H](O)C[n+]1cc(O)c(C[C@H](N)C(=O)O)c(CC[C@H](N)C(=O)O)c1)C(=O)[O-]` [Pyd, pyridinoline], the “% B0” value was 87% (Pyd 0.001 mg/ml), 85% (Pyd 0.01 mg/ml), 89% (Pyd 0.1 mg/ml) and 83% (Pyd 1 mg/ml). Also, the “A 450” value runs as follows: (Pyd 0.001 mg/ml) 1,302; (Pyd 0.01 mg/ml) 1,275; (Pyd 0.1 mg/ml) 1,327; (Pyd 1 mg/ml) 1,249. For the same molecule, where the note is “even at high levels”, the “inhibition of Mab 51A93 by calibrator” value is listed as “slightly inhibited”.

For the origin of these results see US6465655B1, “Antibody to and assay for peptide linked-pyridinoline as indicator of bone resorption level” (Serex, Inc., priority 1997, dated 2002).
